Source: US20230167467A1, “METHODS AND COMPOSITIONS FOR THE PRODUCTION OF ISOBUTENE” (University of Alaska Anchorage, priority 2020, published 2023)

Test system: Engineered strains of E. coli
Assay type: cell-based
Conditions: for change in expression of gene adiA / change in expression of gene adiC / change in expression of gene adiY / change in expression of gene bhsA / change in expression of gene bssR / change in expression of gene bssS / change in expression of gene clpA / change in expression of gene clpB / change in expression of gene clpP / change in expression of gene coaA / change in expression of gene coaD / change in expression of gene cspA / change in expression of gene cspB / change in expression of gene cspC / change in expression of gene cspD / change in expression of gene cspE / change in expression of gene cspF / change in expression of gene dhaK / change in expression of gene dhaL / change in expression of gene dnaJ / change in expression of gene dnaK / change in expression of gene fabA / change in expression of gene fabB / change in expression of gene fabD / change in expression of gene flgA / change in expression of gene flgB / change in expression of gene flgC / change in expression of gene flgD / change in expression of gene flgE / change in expression of gene flgF / change in expression of gene flgG / change in expression of gene flgH / change in expression of gene gabD / change in expression of gene gabP / change in expression of gene gabT / change in expression of gene gadA / change in expression of gene gadB / change in expression of gene gadC / change in expression of gene gadE / change in expression of gene gadW / change in expression of gene gadX / change in expression of gene gadY / change in expression of gene glpA / change in expression of gene glpB / change in expression of gene glpC / change in expression of gene groL / change in expression of gene groS / change in expression of gene hchA / change in expression of gene hslJ / change in expression of gene hslO / change in expression of gene hslR / change in expression of gene hslU / change in expression of gene hslV / change in expression of gene ibpA / change in expression of gene ibpB / change in expression of gene lhgO / change in expression of gene lipA / change in expression of gene lipB / change in expression of gene narG / change in expression of gene narH / change in expression of gene narI / change in expression of gene narJ / change in expression of gene narK / change in expression of gene potA / change in expression of gene potB / change in expression of gene potC / change in expression of gene pspA / change in expression of gene pspB / change in expression of gene rpoA / change in expression of gene rpoB / change in expression of gene rpoC / change in expression of gene rpoD / change in expression of gene rpoE / change in expression of gene rpoH / change in expression of gene rpoN / change in expression of gene rpoS / change in expression of gene rpoZ / change in expression of gene spy / change in expression of gene tatA / change in expression of gene tatB / change in expression of gene tatC / change in expression of gene tatD / change in expression of gene tatE: after solvent exposure, vs positive control; for number of genes with significant changes in expression: vs control, Bon Ferroni corrected p-value<0.05

C1=CCCCC1 [cyclohexene]
expression of acid resistance genes (gad, adi families): downregulated
expression of chaperone proteins groLS, spy, and dnaJK: highly upregulated
expression of dihydroxyacetone kinase genes dhaKLM: upregulated
expression of galactitol metabolism genes gatABD: upregulated
expression of heat shock proteins and chaperones hslJORUV: increased
expression of ibpAB and clpAB (protein protection and repair): increased
expression of marABC (multiple antibiotic resistance): upregulated
expression of nitrate reductase genes narGHJKP: upregulated
expression of phage shock genes pspABCDE: highly upregulated
change in expression of gene adiA: −1.87 ± 0.86
change in expression of gene adiC: −1.64 ± 1.02
change in expression of gene adiY: −2.84 ± 0.66
change in expression of gene bhsA: 4.18 ± 0.60
change in expression of gene bssR: 2.27 ± 0.44
change in expression of gene bssS: 6.69 ± 0.84
change in expression of gene clpA: 4.12 ± 0.63
change in expression of gene clpB: 6.17 ± 0.69
change in expression of gene clpP: 2.72 ± .59
change in expression of gene coaA: −1.36 ± 0.88
change in expression of gene coaD: 1.34 ± 0.90
change in expression of gene cspA: −6.07 ± 0.58
change in expression of gene cspB: −4.10 ± 1.31
change in expression of gene cspC: −3.65 ± 0.94
change in expression of gene cspD: 2.88 ± 0.57
change in expression of gene cspE: −0.06 ± 0.63
change in expression of gene cspF: −2.37 ± 1.04
change in expression of gene dhaK: 3.72 ± 0.59
change in expression of gene dhaL: 2.40 ± 0.62
change in expression of gene dnaJ: 6.64 ± 0.69
change in expression of gene dnaK: 5.96 ± 0.66
change in expression of gene fabA: −1.13 ± 0.76
change in expression of gene fabB: 1.01 ± 0.66
change in expression of gene fabD: −1.64 ± 0.53
change in expression of gene flgA: −0.73 ± 1.53
change in expression of gene flgB: −3.31 ± 1.51
change in expression of gene flgC: −4.46 ± 1.94
change in expression of gene flgD: −3.72 ± 1.87
change in expression of gene flgE: −2.82 ± 1.18
change in expression of gene flgF: −2.88 ± 1.58
change in expression of gene flgG: −2.77 ± 1.48
change in expression of gene flgH: −2.14 ± 1.71
change in expression of gene gabD: 0.11 ± 1.32
change in expression of gene gabP: 1.19 ± 1.28
change in expression of gene gabT: 0.31 ± 1.28
change in expression of gene gadA: −0.52 ± 0.68
change in expression of gene gadB: 0.17 ± 0.80
change in expression of gene gadC: 1.28 ± 0.80
change in expression of gene gadE: −3.51 ± 0.61
change in expression of gene gadW: −2.17 ± 0.95
change in expression of gene gadX: −3.69 ± 0.57
change in expression of gene gadY: −4.01 ± 0.80
change in expression of gene glpA: 7.06 ± 0.87
change in expression of gene glpB: 4.64 ± 0.63
change in expression of gene glpC: 5.02 ± 0.80
change in expression of gene groL: 4.57 ± 0.57
change in expression of gene groS: 4.63 ± 0.50
change in expression of gene hchA: 2.06 ± 0.60
change in expression of gene hslJ: 1.41 ± 0.66
change in expression of gene hslO: 4.56 ± 0.64
change in expression of gene hslR: 4.80 ± 0.65
change in expression of gene hslU: 4.95 ± 0.55
change in expression of gene hslV: 4.81 ± 0.61
change in expression of gene ibpA: 9.90 ± 1.21
change in expression of gene ibpB: 10.95 ± 1.50
change in expression of gene lhgO: 1.38 ± 1.64
change in expression of gene lipA: 0.42 ± 0.73
change in expression of gene lipB: 0.61 ± 1.03
change in expression of gene narG: 4.96 ± 0.65
change in expression of gene narH: 4.45 ± 0.61
change in expression of gene narI: 3.11 ± 0.92
change in expression of gene narJ: 4.11 ± 0.68
change in expression of gene narK: 3.31 ± 0.84
change in expression of gene potA: −2.79 ± 0.81
change in expression of gene potB: −1.05 ± 1.29
change in expression of gene potC: −0.55 ± 1.19
change in expression of gene pspA: 10.50 ± 0.55
change in expression of gene pspB: 9.33 ± 0.68
change in expression of gene rpoA: 0.17 ± 0.44
change in expression of gene rpoB: 0.79 ± 0.40
change in expression of gene rpoC: 1.15 ± 0.39
change in expression of gene rpoD: 4.75 ± 0.70
change in expression of gene rpoE: 1.44 ± 0.62
change in expression of gene rpoH: 1.79 ± 0.52
change in expression of gene rpoN: −1.54 ± 0.49
change in expression of gene rpoS: 0.22 ± 0.47
change in expression of gene rpoZ: −0.02 ± 0.53
change in expression of gene spy: 3.95 ± 0.87
change in expression of gene tatA: −1.95 ± 0.52
change in expression of gene tatB: −1.59 ± 0.59
change in expression of gene tatC: −1.25 ± 1.09
change in expression of gene tatD: −1.56 ± 1.13
change in expression of gene tatE: −0.97 ± 0.64
number of genes with significant changes in expression: 530 genes

CCCCCC [hexane]
expression of acid resistance genes (gad, adi families): downregulated
expression of chaperone proteins groLS, spy, and dnaJK: highly upregulated
expression of dihydroxyacetone kinase genes dhaKLM: upregulated
expression of flagellar protein synthesis and assembly genes: downregulated
expression of gadE and adiY: significantly downregulated
expression of galactitol metabolism genes gatABD: upregulated
expression of glpABC (glycerol to glycerone phosphate): upregulated
expression of heat shock proteins and chaperones hslJORUV: strongest increases
expression of ibpAB and clpAB (protein protection and repair): strongest increases
expression of marABC (multiple antibiotic resistance): upregulated
expression of nitrate reductase genes narGHJKP: upregulated
expression of phage shock genes pspABCDE: highly upregulated
change in expression of gene adiA: −4.64 ± 0.88
change in expression of gene adiC: −4.53 ± 1.04
change in expression of gene adiY: −3.19 ± 0.66
change in expression of gene bhsA: 3.01 ± 0.60
change in expression of gene bssR: 1.50 ± 0.44
change in expression of gene bssS: 5.47 ± 0.84
change in expression of gene clpA: 2.49 ± 0.63
change in expression of gene clpB: 5.02 ± 0.69
change in expression of gene clpP: 1.52 ± 0.59
change in expression of gene coaA: −2.34 ± 0.88
change in expression of gene coaD: 0.57 ± 0.90
change in expression of gene cspA: −4.08 ± 0.57
change in expression of gene cspB: −4.25 ± 1.30
change in expression of gene cspC: −2.22 ± 0.90
change in expression of gene cspD: 2.07 ± 0.57
change in expression of gene cspE: −0.53 ± 0.63
change in expression of gene cspF: −3.67 ± 1.04
change in expression of gene dhaK: 3.83 ± 0.58
change in expression of gene dhaL: 2.77 ± 0.62
change in expression of gene dnaJ: 4.46 ± 0.69
change in expression of gene dnaK: 4.31 ± 0.66
change in expression of gene fabA: −0.96 ± 0.75
change in expression of gene fabB: 2.15 ± 0.66
change in expression of gene fabD: −0.89 ± 0.52
change in expression of gene flgA: −2.91 ± 1.55
change in expression of gene flgB: −6.86 ± 1.62
change in expression of gene flgC: −7.12 ± 2.02
change in expression of gene flgD: −6.97 ± 1.94
change in expression of gene flgE: −5.83 ± 1.20
change in expression of gene flgF: −5.93 ± 1.66
change in expression of gene flgG: −5.59 ± 1.51
change in expression of gene flgH: −4.58 ± 1.75
change in expression of gene gabD: −1.81 ± 1.34
change in expression of gene gabP: −3.20 ± 1.33
change in expression of gene gabT: −1.73 ± 1.30
change in expression of gene gadA: −1.47 ± 0.68
change in expression of gene gadB: −0.69 ± 0.80
change in expression of gene gadC: −0.25 ± 0.80
change in expression of gene gadE: −2.22 ± 0.60
change in expression of gene gadW: −4.92 ± 0.97
change in expression of gene gadX: −2.95 ± 0.57
change in expression of gene gadY: −5.22 ± 0.81
change in expression of gene glpA: 7.69 ± 0.87
change in expression of gene glpB: 5.40 ± 0.63
change in expression of gene glpC: 6.04 ± 0.79
change in expression of gene groL: 4.16 ± 0.57
change in expression of gene groS: 4.25 ± 0.50
change in expression of gene hchA: 0.77 ± 0.60
change in expression of gene hslJ: 2.29 ± 0.65
change in expression of gene hslO: 3.04 ± 0.64
change in expression of gene hslR: 3.21 ± 0.65
change in expression of gene hslU: 3.61 ± 0.55
change in expression of gene hslV: 2.94 ± 0.61
change in expression of gene ibpA: 7.63 ± 1.21
change in expression of gene ibpB: 8.41 ± 1.50
change in expression of gene lhgO: −1.20 ± 1.67
change in expression of gene lipA: 0.42 ± 0.59
change in expression of gene lipB: −0.05 ± 0.63
change in expression of gene narG: 4.03 ± 0.65
change in expression of gene narH: 3.23 ± 0.61
change in expression of gene narI: 2.02 ± 0.92
change in expression of gene narJ: 2.26 ± 0.68
change in expression of gene narK: 2.20 ± 0.84
change in expression of gene potA: −2.87 ± 0.80
change in expression of gene potB: −2.22 ± 1.29
change in expression of gene potC: −1.06 ± 1.18
change in expression of gene pspA: 8.97 ± 0.55
change in expression of gene pspB: 7.11 ± 0.68
change in expression of gene rpoA: 0.76 ± 0.44
change in expression of gene rpoB: 0.54 ± 0.40
change in expression of gene rpoC: 1.02 ± 0.39
change in expression of gene rpoD: 3.14 ± 0.70
change in expression of gene rpoE: −2.64 ± 0.62
change in expression of gene rpoH: 0.31 ± 0.52
change in expression of gene rpoN: −1.24 ± 0.49
change in expression of gene rpoS: 0.42 ± 0.47
change in expression of gene rpoZ: −0.98 ± 0.53
change in expression of gene spy: 4.12 ± 0.87
change in expression of gene tatA: −0.89 ± 0.51
change in expression of gene tatB: −0.66 ± 0.58
change in expression of gene tatC: −1.03 ± 1.08
change in expression of gene tatD: −2.65 ± 1.13
change in expression of gene tatE: 0.78 ± 0.63
number of genes with significant changes in expression: 535 genes
